Assay results published in patent US20130096077A1, “Nematicidal Mixtures for Use in Sugar Cane” (priority 2010, published 2013).

Columns and labels:
Format in all cases: in vivo
sugar cane = experiment: Plant health activity: tillering of sugar cane; details: fipronil 200, abamectin 90, mixture 200 + 90 g a.i./ha; for No. of tillers 180 days after planting: average per 1.0 linear meter, in furrow at planting, blank 19.75; for % of increase: tillers 180 days after planting vs blank
Experimental: (§1) Fipronil was used in the commercially available formulation Regent® 800 WG, containing Fipronil in a concentration of 800 g/kg. Abamectin was used in the commercially available EC formulation Vertimec® 18 CE, containing Abamectin in a concentration of 18 g/I.
(§2) Tank mixes of the commercial formulations of fipronil and abamectin diluted with water were prepared in a ratio such that the application rates identified in the tables below were achieved when 100 liter of tank mix formulation were applied to sugar cane in furrow.
(§3) The tank mix formulation was applied in furrow spraying over the sugar cane stems (cuttings/segments, 1 to 3 nodes segments) at the planting time.
(§4) The synergistic effect was determined by Limpel's formula. Synergism was evident if the observed effect for the mixture is greater than the expected calculated effect:
(§5) E=Expected activity of the mixture X=activity of compound X Y=activity of compound Y
The tank mix formulation of the mixture of fipronil and abamectin was prepared as described above for testing of nematicidal activity. The tank mix formulation was applied to sugar cane as described above for testing of nematicidal activity.
Tillering was evaluated before the application of the tank mix (“blank” in Table 2) and 180 days after planting/application the tank mix formulation. Each replication (plot) was evaluated at 3 different randomized points, each point consisting of 1.0 linear meter of the central rows of the plot. Evaluation was done for 4 replications (plots).

Helicotylenchus species = experiment: Nematicidal activity, sugar cane field, in furrow tank mix application; details: fipronil 200, abamectin 90, mixture 200 + 90 g a.i./ha; for Nematode activity in the soil 90 days after planting: 1000 ml soil incl. roots, in furrow at planting, blank 317; for Efficacy/mortality: 90 days after planting, in furrow
Experimental: as §1, §2, §3, §4, §5
(§6) Treatments were done mid of June 2009 in Brazil in sugar cane fields which had not been pretreated with nematicides, that is, in fields showing an average nematode population.
(§7) Treatments were done only at the time of planting, that is, no further in furrow treatment was conducted. Each treatment experiment was replicated 6 times.
(§8) Nematicidal activity for Helicotylenchus and Paratrichodorus species was evaluated before the spraying for different portions of 1000 ml of soils collected at different sites of the field (“blank” in Table 1).
(§9) 90 days after spraying the tank mix formulation, different portions of 1000 ml of soil (including roots) were collected at different sites of the field, and the soil and the root knots were evaluated for nematicidal activity of Helicotylenchus and Paratrichodorus species and efficacy/mortality, respectively.
(§10) Synergism was evident if the % observed mortality for the mixture was greater than the % expected mortality.

Paratrichodorus species = experiment: as above; details: fipronil 200, abamectin 90, mixture 200 + 90 g a.i./ha; for Nematode activity in the soil 90 days after planting: 1000 ml soil incl. roots, in furrow at planting, blank 133; for Efficacy/mortality: 90 days after planting, in furrow
Experimental: as §1, §2, §3, §4, §5, §6, §7, §8, §9, §10

[1] = system: sugar cane (variety SP80-1842); experiment: Yield increase of sugar cane; details: fipronil 200, abamectin 126, mixture 200 + 126 g a.i./ha; for Yield: in furrow at planting, untreated 102.81; for % increase of yield: vs untreated

Molecule | No. of tillers 180 days after planting (sugar cane) | % of increase (sugar cane) | Nematode activity in the soil 90 days after planting (Helicotylenchus species) | Efficacy/mortality (Helicotylenchus species) | Nematode activity in the soil 90 days after planting (Paratrichodorus species) | Efficacy/mortality (Paratrichodorus species) | Yield [1] | % increase of yield [1]
N#Cc1nn(-c2c(Cl)cc(C(F)(F)F)cc2Cl)c(N)c1[S+]([O-])C(F)(F)F (stereo not shown) [Fipronil] | 20.25 | 2.5% | 367 | 0% | 100 | 25% | 106.31 tons/ha | 3.4%
Abamectin | 21.5 | 8.9% | 117 | 63% | 133 | 0% | 106.33 tons/ha | 3.4%
